Measurements taken from patent publication US20260062376A1, “SQUARAMIDE DERIVATIVES AS CB1 ALLOSTERIC MODULATORS” (RESEARCH TRIANGLE INSTITUTE, priority 2022, published 2026).

How the values were obtained:
MDCK-mdr1 cells = assay: Bidirectional MDCK-MDR1 permeability assay; format: in vitro ADME
Experimental: Permeability Assessment. Bidirectional MDCK-MDR1 permeability assay was performed by Paraza Pharma Inc. (Montreal, Canada). MDCK-mdr1 cells at passage 5 were seeded onto permeable polycarbonate supports in 12-well Costar Transwell plates and allowed to grow and differentiate for 3 days. On day 3, culture medium (DMEM supplemented with 10% FBS) was removed from both sides of the transwell inserts and cells were rinsed with warm HBSS. After the rinse step, the chambers were filled with warm transport buffer (HBSS containing 10 mM HEPES, 0.25% BSA, pH 7.4) and the plates were incubated at 37° C. for 30 min prior to TEER (Trans Epithelial Electric Resistance) measurements.
The buffer in the donor chamber (apical side for A-to-B assay, basolateral side for B-to-A assay) was removed and replaced with the working solution (10 μM test article in transport buffer). The plates were then placed at 37° C. under light agitation. At designated time points (30, 60 and 90 min), an aliquot of transport buffer from the receiver chamber was removed and replenished with fresh transport buffer. Samples were quenched with ice-cold ACN containing internal standard and then centrifuged to pellet protein. Resulting supernatants are further diluted with 50/50 ACN/H2O (H2O only for Atenolol) and submitted for LC-MS/MS analysis. Reported apparent permeability (Papp) values were calculated from single determination. Atenolol and propranolol were tested as low and moderate permeability references.
The apparent permeability (Papp, measured in cm/s) of a compound is determined according to the following formula from two independent experiments in duplicate: […]
where dQ/dt is the net rate of appearance in the receiver compartment; A is the area of the Transwell measured in cm^2 (1.12 cm^2); Ci is the initial concentration of compound added to the donor chamber; and 60 is the conversion factor for minute to second.

[1] = Kinetic solubility assessment; format: physicochemical; conditions: phosphate buffer solution, 2 hours at room temperature, target 400 μM
Experimental: The solution was agitated on a VX-2500 multi-tube vortexer (VWR International, Radnor, Pennsylvania, United States of America) for 2 hours at room temperature. Following agitation, the sample was filtrated on a glass-fiber filter (1 μm) and the eluate was diluted 400-fold with a mixture of acetonitrile: water (1:1). On each experimental occasion, nicardipine and imipramine were assessed as reference compounds for low and high solubility, respectively. All samples were assessed in triplicate and analyzed by LC-MS/MS using electrospray ionization against standards prepared in the same matrix.

Plasma protein binding = format: in vitro ADME
rats [2] = assay: Locomotion in rats; format: in vivo, rat; conditions: 5.6 mg/kg i.p.
[3] = Metabolic stability in rat liver microsomes; format: in vitro ADME; conditions: for microsomal CLint / half-life: pH 7.4, 0.5 mg/mL protein; for microsomal CLint: read-out: Rat Liver microsome Clearance; for half-life: read-out: Rat Liver microsome T1/2
Experimental: Metabolic stability assessment: Compounds were incubated with rat liver microsomes at 37° C. for a total of 45 minutes. The reaction was performed at pH 7.4 in 100 mM potassium phosphate buffer containing 0.5 mg/mL of rat liver microsomal protein. Phase I metabolism was assessed by adding NADPH to a final concentration of 1 mM and collecting samples at time points 0, 5, 15, 30 and 45 minutes. All collected samples were quenched 1:1 with ice-cold stop solution (1 μM labetalol and 1 μM glyburide in acetonitrile) and centrifuged to remove precipitated protein. Resulting supernatants were further diluted 1:4 with acetonitrile:water (1:1). Samples were analyzed by LC/MS/MS and calculations for half-life, and in-vitro clearance were accomplished using Microsoft Excel (2007).

Human CB1 [4] = biological target: T1, Human CB1 (Homo sapiens (Human), UniProt P21554); assay: Calcium mobilization assay (antagonist mode vs CP55,940); format: cell-based; conditions: CHO-RD-HGA16 cells stably expressing human CB1; against EC50 concentration of CP55,940; mean ± SEM, at least three experiments
Experimental: Calcium Mobilization Assay: CHO-RD-HGA16 cells (Molecular Devices, San Jose, California, United States of America) stably expressing the human CB1 receptor were plated into 96-well black-walled assay plates at 25,000 cells/well in 100 μL of Ham's F12 (supplemented with 10% fetal bovine serum, 100 units of penicillin/streptomycin, and 100 μg/mL Normocin) and incubated overnight at 37° C., 5% CO2. Calcium 5 dye (Molecular Devices, San Jose, California, United States of America) was reconstituted according to the manufacturer's instructions. The reconstituted dye was diluted 1:40 in prewarmed (37° C.) assay buffer (lx HBSS, 20 mM HEPES, 2.5 mM probenecid, pH 7.4 at 37° C.). Growth medium was removed, and the cells were gently washed with 100 μL of prewarmed (37° C.) assay buffer. […] After the pretreatment incubation period, the plate was read with a FLIPR Tetra (Molecular Devices, San Jose, California, United States of America). […] Relative fluorescence units (RFU) were plotted against the log of compound concentrations. […] Test compound RFUs were compared to the CP55,940 Emax RFUs to generate % Emax values. For the CB2 agonist and antagonist assays, the same procedures were followed except that stable human CB2—CHO-RD-HGA16 cells were used.
(§1) Data Analysis: For calcium mobilization experiments, data were fit to a three-parameter logistic curve to generate IC50 values (GraphPad Prism 6.0, Graphpad Software, San Diego, California, United States of America). For [^35S]GTPγS experiments, data were normalized to maximal CP55,940 (100 nM) stimulation in the absence of test compound (i.e., vehicle=100%).

Human CB1 [5] = biological target: T1, Human CB1; assay: Human CB1 HEK293 membrane [35S]GTPγS binding assay; format: biochemical; conditions: HEK293 membranes expressing human CB1, in presence of CP55,940, mean ± SEM
Experimental: Non-specific binding was determined by adding 30 μM unlabeled GTPγS.
as §1

Mouse CB1 = Mouse CB1 (Mus musculus (Mouse), UniProt P47746); assay: Mouse CB1 [35S]GTPγS binding assay (ICR mouse cerebellum membranes); format: biochemical; conditions: in presence of CP55,940, mean ± SEM
Experimental: [^35S]GTPγS Binding Assay: For receptor signaling, membranes (10 μg protein) from either ICR mouse cerebellum mice (6-8 weeks old; Enviga International, Indianapolis, Indiana, United States of America) or HEK cells stably expressing CB1 receptor were preincubated in assay buffer for 10 min with 3 units/ml adenosine deaminase then incubated for 60 min at 30° C. with 30 μM GDP and 0.1 nM [^35S]GTPγS (Perkin Elmer Life Sciences, Boston, Massachusetts, United States of America). Non-specific binding was determined by adding 30 μM unlabeled GTPγS.
as §1

rats [6] = conditions: cited from earlier work
[7] = in vivo; cited from earlier work
rats [8] = conditions: 10 mg/kg; cited from earlier work

Sequence of Mouse CB1 (P47746 whole entry): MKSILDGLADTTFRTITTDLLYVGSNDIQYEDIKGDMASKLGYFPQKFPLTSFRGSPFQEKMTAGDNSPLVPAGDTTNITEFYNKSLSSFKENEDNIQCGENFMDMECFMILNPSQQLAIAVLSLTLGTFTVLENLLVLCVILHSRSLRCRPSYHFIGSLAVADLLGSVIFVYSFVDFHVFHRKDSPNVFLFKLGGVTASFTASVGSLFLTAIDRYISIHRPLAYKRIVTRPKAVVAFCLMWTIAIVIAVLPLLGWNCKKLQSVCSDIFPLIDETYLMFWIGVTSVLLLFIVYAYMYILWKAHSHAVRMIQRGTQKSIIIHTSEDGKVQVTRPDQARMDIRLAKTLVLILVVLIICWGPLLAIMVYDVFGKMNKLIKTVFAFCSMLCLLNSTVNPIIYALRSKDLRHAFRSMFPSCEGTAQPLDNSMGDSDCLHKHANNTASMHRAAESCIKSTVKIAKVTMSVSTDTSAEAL
T1 sequence (P21554 whole entry): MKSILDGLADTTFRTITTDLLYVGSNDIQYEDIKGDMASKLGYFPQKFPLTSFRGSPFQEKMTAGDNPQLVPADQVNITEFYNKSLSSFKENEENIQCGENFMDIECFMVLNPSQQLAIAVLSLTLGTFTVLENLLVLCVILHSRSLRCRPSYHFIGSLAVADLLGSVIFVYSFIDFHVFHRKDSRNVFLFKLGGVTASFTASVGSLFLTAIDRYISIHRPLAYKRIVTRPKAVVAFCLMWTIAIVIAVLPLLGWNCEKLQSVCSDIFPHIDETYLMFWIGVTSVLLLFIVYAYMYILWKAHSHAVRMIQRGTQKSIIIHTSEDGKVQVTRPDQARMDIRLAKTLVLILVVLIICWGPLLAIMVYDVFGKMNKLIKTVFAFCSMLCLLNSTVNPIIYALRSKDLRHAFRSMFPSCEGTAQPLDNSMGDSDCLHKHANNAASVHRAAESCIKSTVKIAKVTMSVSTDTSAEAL

In the case of O=c1c(NCCc2cccc(Cl)c2)c(Nc2ccc(Cl)cc2)c1=O [Compound 7, 3-[(4-Chlorophenyl)amino]-4-{[2-(3-chlorophenyl)ethyl]amino}cyclobut-3-ene-1,2-dione], the “Efflux ratio BA/AB” value (MDCK-mdr1 cells; MDCK-MDR1) is reported as 2.1, the “Papp A to B (x10^-6 cm/s)” value (MDCK-mdr1 cells; MDCK-MDR1, 10 μM, apical to basolateral) is reported as 3.1 x10^-6 cm/s and the “Papp B to A (x10^-6 cm/s)” value (MDCK-mdr1 cells; MDCK-MDR1, 10 μM, basolateral to apical) is reported as 6.4 x10^-6 cm/s. For the same compound, the solubility kinetic at 2 h [1] was under 1 µM, the “% Plasma Protein Bound” value (Plasma protein binding) was over 99.74% and the Effect on locomotion (rats [2]) was “without affecting locomotion”. The Effect on locomotion (rats [2]; listed as Compound 6) was “did not affect locomotion”, the microsomal CLint ([3]; NADPH, 37° C.) was 34.7 µL/min/mg and the half-life ([3]; NADPH, 37° C.) was 40 min. The “Metabolic stability in rat liver microsomes compared with PSNCBAM-1” value ([3]; versus PSNCBAM-1) was “better metabolic stability” and the IC50 (Human CB1 [4]) was 130 ± 12 nM.

In the case of O=c1c(Nc2ccc(Cl)cc2)c(Nc2cccc(-c3ccc(F)cc3)c2)c1=O [Compound 33, 3-[(4-Chlorophenyl)amino]-4-[(4′-fluorobiphenyl-3-yl)amino]cyclobut-3-ene-1,2-dione], the solubility kinetic at 2 h ([1]; aqueous buffer, kinetic from dmso stock) is reported as under 1 µM, the IC50 (Human CB1 [5]; read-out: Human CB1 HEK293 membrane [35S]GTPγS binding assay pIC50 ± SEM (converted)) is reported as 501 nM and the “% Plasma Protein Bound” value (Plasma protein binding) is reported as 99%. It also gave an IC50 (Mouse CB1; read-out: Mouse CB1 [35S]GTPγS binding assay pIC50 ± SEM (converted)) of 110 nM, a microsomal CLint ([3]; NADPH, 37° C.) of 59.6 µL/min/mg and a half-life ([3]; NADPH, 37° C.) of 23.7 min. The IC50 (Human CB1 [4]) was 575 ± 100 nM.

In the case of CC(=O)c1ccc(CCNc2c(Nc3ccc(Cl)cc3)c(=O)c2=O)cc1 [Compound 40, 3-{[2-(A-acetylphenyl)ethyl]amino}-4-[(4-chlorophenyl)amino]cyclobut-3-ene-1,2-dione], the “Human CB1 HEK293 membrane [35S]GTPγS binding assay pIC50 ± SEM” value (Human CB1 [5]) is reported as 6.77 ± 0.04, the “Mouse CB1 [35S]GTPγS binding assay pIC50 ± SEM” value (Mouse CB1) is reported as 6.70 ± 0.09 and the IC50 (Human CB1 [4]) is reported as 350 ± 10 nM.

In the case of O=c1c(NCCc2ccc(F)cc2F)c(Nc2ccc(Cl)cc2)c1=O [Compound 47, 3-[(4-Chlorophenyl)amino]-4-{[2-(2,4-difluorophenyl)ethyl]amino}cyclobut-3-ene-1,2-dione], the “Human CB1 HEK293 membrane [35S]GTPγS binding assay pIC50 ± SEM” value (Human CB1 [5]) is reported as 6.84 ± 0.08, the “Mouse CB1 [35S]GTPγS binding assay pIC50 ± SEM” value (Mouse CB1) is reported as 6.61 ± 0.19 and the IC50 (Human CB1 [4]) is reported as 362 ± 30 nM.

For O=C(Nc1ccc(Cl)cc1)Nc1cccc(-c2cccc(N3CCCC3)n2)c1 [PSNCBAM-1, reference compound], the “Food intake and body weight in rats” value (rats [6]) is given as “reduces food intake and body weight” and the “Rat Liver microsome T1/2” value ([3]; 0.5 mg/mL protein, NADPH, 37° C.) is given as 13 min.

In the case of N#Cc1ccc(NC(=O)Nc2cccc(-c3cccc(N4CCCC4)n3)c2)cc1 [RTICBM-28], the “THC's potency in drug discrimination” value [7] is given as “reduces THC's potency in drug discrimination”.

For O=C(NCCc1cccc(Cl)c1)Nc1ccc(Cl)cc1 [RTICBM-189], the “Drug-induced reinstatement of cocaine seeking in rats” value (rats [8]) is given as “attenuates drug-induced restatement of cocaine seeking”.
